Laboratory results reported in patent US10324085B2, “Systems and methods for the monitoring of protein complex formation in cells” (priority 2013, dated 2019).
Several values for one entry are separate records, joined by “and”; a condition that tells them apart may be missing. Equal values may be shown once. Read-outs that look alike come from different tables or passages of the source.

Legend:
ERα-ERα [1] = target: T1, ERα-ERα (Homo sapiens, UniProt P03372); assay: cell-based
T1 construct: expressed in transfected cells; host or cells: HEK293
Target sequence in this assay (P03372 whole entry): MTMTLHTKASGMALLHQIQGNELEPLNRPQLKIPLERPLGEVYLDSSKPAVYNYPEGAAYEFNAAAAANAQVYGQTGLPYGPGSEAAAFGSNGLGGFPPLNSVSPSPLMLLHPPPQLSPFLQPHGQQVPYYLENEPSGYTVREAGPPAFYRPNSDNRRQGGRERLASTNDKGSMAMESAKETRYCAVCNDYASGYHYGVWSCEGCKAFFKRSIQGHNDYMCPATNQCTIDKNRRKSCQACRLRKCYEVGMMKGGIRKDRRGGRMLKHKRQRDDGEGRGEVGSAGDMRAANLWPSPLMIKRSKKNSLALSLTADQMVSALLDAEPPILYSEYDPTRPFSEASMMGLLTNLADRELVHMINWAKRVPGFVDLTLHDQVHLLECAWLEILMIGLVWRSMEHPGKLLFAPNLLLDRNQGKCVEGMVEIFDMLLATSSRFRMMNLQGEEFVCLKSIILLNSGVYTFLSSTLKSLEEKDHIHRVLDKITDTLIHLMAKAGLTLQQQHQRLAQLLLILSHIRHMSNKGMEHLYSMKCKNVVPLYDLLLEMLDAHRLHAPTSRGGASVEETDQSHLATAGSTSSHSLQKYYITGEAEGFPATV

[2] = target: T2, RXRγ-RARα-CoRNBox complex (Homo sapiens, UniProt P10276); assay: BRETFect RXRγ-RARα-CoRNBox ternary complex in HEK293 cells; type: cell-based; conditions: 1 μM, 40 min
T2 construct: expressed in transfected cells; host or cells: HEK293
T2 sequence (P10276 1-462): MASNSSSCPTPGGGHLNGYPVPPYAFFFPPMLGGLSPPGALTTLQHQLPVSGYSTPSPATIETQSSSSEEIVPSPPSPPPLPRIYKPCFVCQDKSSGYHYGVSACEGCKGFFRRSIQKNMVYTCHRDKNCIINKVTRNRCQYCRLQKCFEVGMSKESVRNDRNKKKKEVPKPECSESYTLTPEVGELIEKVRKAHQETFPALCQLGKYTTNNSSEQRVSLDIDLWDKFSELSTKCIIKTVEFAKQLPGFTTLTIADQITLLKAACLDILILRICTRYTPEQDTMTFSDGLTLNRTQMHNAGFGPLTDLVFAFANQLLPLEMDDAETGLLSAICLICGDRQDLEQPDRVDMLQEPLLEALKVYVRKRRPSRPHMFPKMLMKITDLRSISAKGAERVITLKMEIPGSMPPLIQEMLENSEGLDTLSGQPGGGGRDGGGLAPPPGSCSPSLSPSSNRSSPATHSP
T2 sequence (P48443 1-463 partner): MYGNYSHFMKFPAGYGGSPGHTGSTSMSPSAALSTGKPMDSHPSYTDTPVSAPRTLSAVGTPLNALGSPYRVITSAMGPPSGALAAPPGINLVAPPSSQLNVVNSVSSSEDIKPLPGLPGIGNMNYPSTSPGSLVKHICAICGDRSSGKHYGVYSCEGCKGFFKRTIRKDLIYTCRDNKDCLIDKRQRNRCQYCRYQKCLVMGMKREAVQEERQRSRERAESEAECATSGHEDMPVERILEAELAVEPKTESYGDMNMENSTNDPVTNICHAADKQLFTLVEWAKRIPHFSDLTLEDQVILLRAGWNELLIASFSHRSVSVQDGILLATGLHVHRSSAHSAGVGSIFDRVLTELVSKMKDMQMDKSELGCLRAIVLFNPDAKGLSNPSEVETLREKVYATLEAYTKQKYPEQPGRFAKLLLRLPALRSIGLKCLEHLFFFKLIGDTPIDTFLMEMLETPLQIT
Experimental: Cells were treated for 40 min with vehicle DMSO (0) or all-trans retinoic acid (ATRA) before coelenterazine H addition and BRET measurement.

ERβ = ERβ (Homo sapiens, UniProt Q92731)
ERα-ERβ [3] = target: T3, ERα-ERβ (Homo sapiens, UniProt P03372+Q92731); assay: cell-based
T3 construct: expressed in transfected cells; host or cells: HEK293
Target sequence in this assay (Q92731 whole entry): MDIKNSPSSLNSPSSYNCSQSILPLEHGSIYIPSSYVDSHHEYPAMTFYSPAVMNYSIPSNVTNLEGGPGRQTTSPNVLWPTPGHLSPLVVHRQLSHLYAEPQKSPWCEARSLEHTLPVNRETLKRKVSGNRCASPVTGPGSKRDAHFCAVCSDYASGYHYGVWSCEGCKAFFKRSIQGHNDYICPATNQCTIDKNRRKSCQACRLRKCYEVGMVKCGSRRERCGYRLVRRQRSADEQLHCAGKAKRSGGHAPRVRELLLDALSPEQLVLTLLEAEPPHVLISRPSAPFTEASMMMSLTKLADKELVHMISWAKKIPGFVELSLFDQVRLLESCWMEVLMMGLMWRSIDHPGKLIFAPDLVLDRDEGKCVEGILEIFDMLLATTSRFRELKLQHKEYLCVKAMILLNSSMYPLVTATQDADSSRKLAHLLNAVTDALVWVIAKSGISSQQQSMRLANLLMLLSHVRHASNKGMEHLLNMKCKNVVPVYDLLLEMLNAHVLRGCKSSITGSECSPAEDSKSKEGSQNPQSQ
Target sequence in this assay (P03372 whole entry): as the sequence (P03372 whole entry) above
Target sequence in this assay (as listed by the source): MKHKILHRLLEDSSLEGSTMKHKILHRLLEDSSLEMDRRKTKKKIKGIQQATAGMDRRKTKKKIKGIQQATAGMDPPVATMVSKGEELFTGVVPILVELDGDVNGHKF

ERα-ERα [4] = target: T1, ERα-ERα; assay: cell-based; conditions: BRETFect titration curves, HEK293 cells, average of three biological replicates; read-out: EC50 (nM), recruitment of SRC1-RID, ERα-ERα
Target sequence in this assay (P03372 whole entry): as the sequence (P03372 whole entry) above
Target sequence in this assay (Q15788 626-753, further chain): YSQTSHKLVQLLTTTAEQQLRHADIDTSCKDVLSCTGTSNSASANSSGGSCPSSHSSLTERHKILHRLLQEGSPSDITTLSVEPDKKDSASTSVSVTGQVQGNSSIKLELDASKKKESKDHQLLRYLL

ERα-ERβ [5] = target: T3, ERα-ERβ; assay: cell-based; conditions: BRETFect titration curves, HEK293 cells, average of three biological replicates; read-out: EC50 (nM), recruitment of SRC1-RID, ERα-ERβ
Target sequence in this assay (Q15788 626-753): as the sequence (Q15788 626-753, further chain) above
Target sequence in this assay (P03372 whole entry): as the sequence (P03372 whole entry) above
Target sequence in this assay (Q92731 whole entry): as the sequence (Q92731 whole entry) above

Chain of ERβ (Q92731 whole entry, species assumed): as the sequence (Q92731 whole entry) above

For 4-hydroxytamoxifen [OHT], the “BRETFect signal (delta BRET), coactivator motif recruitment to ERα dimers” value (ERα-ERα [1]) was “suppresses coactivator motif recruitment”.

CC1=C(/C=C/C(C)=C/C=C/C(C)=C/C(=O)O)C(C)(C)CCC1 [ATRA, all-trans retinoic acid] was tested, and the “RXRγ-RARα-CoRNBox ternary complex, net BRET” value [2] was “the ternary complex is disassembled”.

For C[C@]12CC[C@@H]3c4ccc(O)cc4CC[C@H]3[C@@H]1CC[C@@H]2O [E2, 17-beta-Estradiol], the “recruitment of CoApep-Venus to ERβ, BRET” value (ERβ) was “E2-induced”.

CCCc1c(-c2ccc(O)cc2)nn(-c2ccc(O)cc2)c1-c1ccc(O)cc1 [PPT, propylpyrazole triol] was tested, and the EC50 (ERα-ERα [1]; BRETFect titration curves, HEK293 cells, average of three biological replicates, read-out: EC50 (nM), recruitment of the coactivator motif peptide, ERα-ERα) was 0.5 nM and 0.547 nM, the EC50 (ERα-ERβ [3]; BRETFect titration curves, HEK293 cells, average of three biological replicates, read-out: EC50 (nM), recruitment of the coactivator motif peptide, ERα-ERβ) was 28 nM and 28.4 nM and the “% of the BRETmax for CoApep recruitment by ERα-ERβ heterodimer” value (ERα-ERβ [3]; relative to BRETmax observed with E2) was 50%. For the same molecule, the EC50 (ERα-ERα [4]) was 0.968 nM and the EC50 (ERα-ERβ [5]) was 25.1 nM.
